Results on 47 molecules are retold here after ChEMBL document CHEMBL2095176, “GSK Tuberculosis Screening Data”.

The term logD denotes the decadic logarithm of the distribution of all forms, ionised or not, between an organic phase and buffer at a given pH. A higher logD goes with a more lipophilic compound. What is called logP is a log measure of how a compound divides between an organic and an aqueous phase. A lower logP goes with lower lipophilicity. Usually solubility (kinetic) stands for solubility judged after dilution from a stock solution rather than from solid.

In brackets after ≈: the same amount, converted by molar mass.

The nature of data set [1]: physchem. Particulars: buffer, pH 7.4.
Description: GSK_TB: GSK in-house hydrophobicity assay at pH7.4 (logD)
Data set [2] can be described thus: physchem. The note with it: octanol/water.
Description: GSK_TB: GSK in-house hydrophobicity assay (logP)
Data set [3] is described as follows: physchem. Particulars: phosphate buffered saline, pH 7.4.
The subject of data set [4] is Mycobacterium tuberculosis H37Rv. Put plainly: microbe, parasite or virus in culture.
Description: GSK_TB: Intracellular minimum inhibitory concentration (MIC) H37Rv assay

Molecule `CCCc1ccc(S(=O)(=O)Nc2ccc(CN3CCN(CC4CC4)CC3)cc2)cc1.O=C(O)C(F)(F)F.O=C(O)C(F)(F)F` came in with a pH-dependent lipophilicity (logD) in “physchem [1]” of 4.69. The molecule also gave a log partition coefficient (logP) in “physchem [2]” of 5.54. The molecule further came in with a solubility (kinetic) in “physchem [3]” of 318 µM. Further, the MIC90 in data set [4] worked out at 7.76 µM.

As to `Cc1csc2nc(-c3ccccn3)nc(Nc3ccncn3)c12.O=C(O)C(F)(F)F`, the kinetic solubility in the data set “physchem [3]” was determined as 231 µM. The MIC90 in data set [4] stood at 1.7 µM.

In “physchem [1]”, `FC(F)(F)c1cc(SCc2ccccc2)nc(-c2ccccn2)n1` had a logD of 7.12. The same molecule returned a logP in the data set “physchem [2]” of 7.54. The kinetic solubility in “physchem [3]” was 1 µM (≈ 0.347 µg/mL). In data set [4], this molecule came in with an MIC90 of 3.3 µM (≈ 1.15 µg/mL).

Consider `Cl.Cl.O=C(Nc1ccc(NC2=NCCN2)cc1)c1ccc(C(=O)Nc2ccc(NC3=NCCN3)cc2)cc1`, for which the pH-dependent lipophilicity (logD) in the data set “physchem [1]” was 0.12. Moreover, the logP in the data set “physchem [2]” was found to be 0.918. This molecule also showed a solubility (kinetic) in the data set “physchem [3]” of 26 µM. The MIC90 in data set [4] came out at 1.6 µM.

In the case of `Cc1occc1C(=O)Nc1nc(-c2ccccn2)nc2ccsc12`, the pH-dependent lipophilicity (logD) in “physchem [1]” was 4.79. In addition, in “physchem [2]”, the logP stood at 4.93. Also, the solubility (kinetic) in “physchem [3]” came to 105 µM (≈ 35.3 µg/mL). Moreover, the MIC90 in data set [4] is 4 µM (≈ 1.35 µg/mL).

Turning to `Clc1ccc(Nc2nc(-c3ccccn3)cs2)nc1`, the log distribution coefficient (logD) in “physchem [1]” is 5.35. Also, in the data set “physchem [2]”, the logP came to 6.53. Further, the MIC90 in data set [4] worked out at 5.9 µM (≈ 1.7 µg/mL).

Turning to `COc1cc(Nc2ccccc2)ccc1NS(=O)(=O)c1c(C)noc1C`, in “physchem [1]”, the log distribution coefficient (logD) came to 5.53. The molecule further showed a lipophilicity (logP) in “physchem [2]” of 5.78. This molecule displayed a kinetic solubility in “physchem [3]” of 53 µM (≈ 19.8 µg/mL). This molecule also showed an MIC90 in data set [4] of 6.1 µM (≈ 2.28 µg/mL).

In turn, `CC(Oc1ccccc1)C(=O)Nc1nc(-c2ccccn2)cs1` (configuration not stated) displayed a log distribution coefficient (logD) in the data set “physchem [1]” of 5.07. This molecule also returned a log partition coefficient (logP) in the data set “physchem [2]” of 5.06. Further, the solubility (kinetic) in the data set “physchem [3]” was found to be 174 µM (≈ 56.6 µg/mL). Further, in data set [4], the MIC90 was found to be 9.77 µM (≈ 3.18 µg/mL).

In “physchem [1]”, `O=C(NC(Cc1ccccc1)C(=O)Nc1ccccc1N1CCOCC1)c1cccs1` (configuration not stated) showed a logD of 5.53. The molecule also yielded a logP in “physchem [2]” of 5.78. Moreover, the kinetic solubility in “physchem [3]” turned out to be 64 µM (≈ 27.9 µg/mL). In addition, the MIC90 in data set [4] came to 7.6 µM (≈ 3.31 µg/mL).

For the molecule `COc1ccc(CC(=O)Nc2c(-c3cccs3)nc3cc(C)ccn23)cc1`, in “physchem [1]”, the pH-dependent lipophilicity (logD) amounted to 3.95. Besides, the logP in the data set “physchem [2]” turned out to be 4.02. Besides, the kinetic solubility in “physchem [3]” was determined as 87 µM (≈ 32.8 µg/mL). The MIC90 in data set [4] stood at 6.8 µM (≈ 2.57 µg/mL).

In the case of `Cc1ccc2nc(C)c(-c3ccn(Cc4ccccc4)n3)n2c1`, the logD in the data set “physchem [1]” was found to be 5.16. Also, the log partition coefficient (logP) in the data set “physchem [2]” worked out at 5.54. This molecule also gave a solubility (kinetic) in the data set “physchem [3]” of 120 µM (≈ 36.3 µg/mL). The MIC90 in data set [4] turned out to be 5 µM (≈ 1.51 µg/mL).

In turn, `Cc1ccc2nc(C)c(C(=O)NCc3ccco3)n2c1` had a logD in “physchem [1]” of 3.02. Further, in the data set “physchem [2]”, the logP stood at 3.02. This molecule had a kinetic solubility in the data set “physchem [3]” of 277 µM (≈ 74.6 µg/mL). The molecule also had an MIC90 in data set [4] of 1.3 µM (≈ 0.35 µg/mL).

As to `COc1ccc(CCNc2cc(-c3ccccc3)nc3ncnn23)cc1`, the MIC90 in data set [4] came to 0.6 µM (≈ 0.207 µg/mL).

In the case of `CN(C)S(=O)(=O)c1ccc(C(=O)Nc2nnc(-c3ccc(Cl)s3)o2)cc1`, the logD in the data set “physchem [1]” was 2.83. In the data set “physchem [2]”, this molecule displayed a logP of 4.69. In “physchem [3]”, this molecule had a kinetic solubility of 177 µM (≈ 73.1 µg/mL). Moreover, in data set [4], the MIC90 was found to be 5.82 µM (≈ 2.4 µg/mL).

Molecule `FC(F)(F)c1nnc2ccc(Cl)nn12` came in with a logD in the data set “physchem [1]” of 3.11. This molecule also had a log partition coefficient (logP) in “physchem [2]” of 3.1. For the same molecule, the kinetic solubility in “physchem [3]” was 344 µM (≈ 76.6 µg/mL). Also, the MIC90 in data set [4] is 9.1 µM (≈ 2.03 µg/mL).

For the molecule `O=C(C=Cc1cccs1)N1CCN(Cc2ccc3c(c2)OCO3)CC1`, in the data set “physchem [1]”, the logD is 4.97. In the data set “physchem [2]”, this molecule gave a log partition coefficient (logP) of 5.23. Further, the kinetic solubility in “physchem [3]” came out at 314 µM (≈ 112 µg/mL). In addition, the MIC90 in data set [4] worked out at 0.3 µM (≈ 0.107 µg/mL).

Turning to `c1cc2c(s1)CCOC21CCN(Cc2ccc3c(c2)OCCO3)CC1`, the MIC90 in data set [4] is 1 µM (≈ 0.357 µg/mL).

Consider `O=C(c1cnn(C(=O)c2ccco2)c1)c1cc(F)ccc1O`, for which the kinetic solubility in “physchem [3]” was 1 µM (≈ 0.3 µg/mL). The MIC90 in data set [4] was found to be 9.55 µM (≈ 2.87 µg/mL).

`Nc1ccccc1Nc1ccc2c(c1)OCO2` showed a solubility (kinetic) in “physchem [3]” of 139 µM (≈ 31.7 µg/mL). In data set [4], the MIC90 is 1.82 µM (≈ 0.415 µg/mL).

As for `Cc1ccc2nc(C)c(C(=O)NCc3cccs3)n2c1`, the MIC90 in data set [4] turned out to be 0.2 µM (≈ 0.0571 µg/mL).

Take `CCCOC(=O)COc1ccc2c(=O)c(-c3ccccc3OC)coc2c1`: the logD in the data set “physchem [1]” was determined as 6. The molecule also yielded a logP in “physchem [2]” of 6.24. Besides, the MIC90 in data set [4] was 7.94 µM (≈ 2.93 µg/mL).

Turning to `COc1ccc2nc(C)cc(OCC(=O)Nc3cc(C)cc(C)c3)c2c1`, the MIC90 in data set [4] was 0.3 µM (≈ 0.105 µg/mL).

For the molecule `Cn1cc(NC(=O)c2cc(NC(=O)CNC(=N)N)cn2C)cc1C(=O)NCCC(=N)N` [NETROPSIN CHLORIDE], the MIC90 in data set [4] worked out at 6.46 µM.

The molecule `CSc1ccccc1C(=O)Nc1nc(-c2ccccn2)cs1` displayed an MIC90 in data set [4] of 1.74 µM (≈ 0.569 µg/mL).

Turning to `Cc1ccccc1CN1CCC(O)(c2ccc(Cl)c(C(F)(F)F)c2)CC1`, the kinetic solubility in “physchem [3]” is 77 µM (≈ 29.6 µg/mL). The same molecule returned an MIC90 in data set [4] of 4.2 µM (≈ 1.61 µg/mL).

For the molecule `CCc1ccc(CN2CCC3(CC2)OCCc2sccc23)s1`, the MIC90 in data set [4] was 1 µM (≈ 0.334 µg/mL).

The molecule `Cc1cccc(-c2nc(Nc3ccncn3)c3c(C)csc3n2)n1` showed an MIC90 in data set [4] of 0.3 µM (≈ 0.1 µg/mL).

`CCc1nnc(NC(=O)c2cccc(C(=O)Nc3nnc(CC)s3)n2)s1` displayed a kinetic solubility in the data set “physchem [3]” of 26 µM (≈ 10.1 µg/mL). The MIC90 in data set [4] is 8 µM (≈ 3.12 µg/mL).

Regarding `Nc1cccnc1Nc1ccc(Cl)cc1`, in “physchem [3]”, the solubility (kinetic) was determined as 94 µM (≈ 20.6 µg/mL). In data set [4], this molecule gave an MIC90 of 0.232 µM (≈ 0.0509 µg/mL).

Consider `COc1ccc(-c2cc(=O)c3cc(OCC(=O)OC(C)C)ccc3o2)cc1`, for which, in the data set “physchem [1]”, the logD turned out to be 5.91. The molecule further had a logP in the data set “physchem [2]” of 6.29. The MIC90 in data set [4] turned out to be 2.95 µM (≈ 1.09 µg/mL).

The molecule `O=C(NC12CC3CC(CC(C3)C1)C2)c1cc2cc(Cl)ccc2[nH]1` returned an MIC90 in data set [4] of 1 µM (≈ 0.329 µg/mL).

For `Cc1cc(CN2CCC3(CC2)OCCc2sccc23)oc1C`, the solubility (kinetic) in the data set “physchem [3]” worked out at 289 µM (≈ 91.7 µg/mL). For the same molecule, the MIC90 in data set [4] is 3.7 µM (≈ 1.17 µg/mL).

`O=C(CCSc1ccc(Cl)cc1)Nc1nc(-c2ccccn2)cs1` had an MIC90 in data set [4] of 8.41 µM (≈ 3.16 µg/mL).

`O=C(c1[nH]nc2c1CCCC2)N1CCN(Cc2ccc3c(c2)OCO3)CC1`: in data set [4], the MIC90 was 4.5 µM (≈ 1.66 µg/mL).

Take `c1ncn(-c2ccc(COc3ccc(-n4cncn4)cc3)cc2)n1`: the MIC90 in data set [4] was 4.73 µM (≈ 1.51 µg/mL).

`CCc1ccc([C@@H]2C[C@H](C(F)(F)F)n3ncc(C(=O)NCc4ccc(OC)cc4)c3N2)cc1` returned an MIC90 in data set [4] of 4.9 µM (≈ 2.25 µg/mL).

For `COc1ccc2nc(C)cc(OCC(=O)Nc3ccccc3OC)c2c1`, in data set [4], the MIC90 was 0.4 µM (≈ 0.141 µg/mL).

As for `COc1cccc(-c2nc3c(N4CCCC4)cccc3n2CC2CCCN2)n1.O=C(O)C(F)(F)F` (configuration not stated), the kinetic solubility in “physchem [3]” was found to be 78 µM. This molecule showed an MIC90 in data set [4] of 9.77 µM.

In turn, `Cc1cccc(-c2nc(Nc3ccncn3)c3sccc3n2)n1` registered an MIC90 in data set [4] of 0.5 µM (≈ 0.16 µg/mL).

In the data set “physchem [1]”, `O=C(C=Cc1ccccc1)N1CCN(Cc2ccc3c(c2)OCO3)CC1` showed a logD of 5.16. The same molecule showed a logP in “physchem [2]” of 5.44. The MIC90 in data set [4] is 3.7 µM (≈ 1.3 µg/mL).

The molecule `O=C(Nc1nnc(-c2ccc(Cl)s2)o1)c1ccc(Cl)s1` displayed an MIC90 in data set [4] of 7.76 µM (≈ 2.69 µg/mL).

Consider `O=C(OCc1c(F)cccc1Cl)c1ccc(-n2ncc(Cl)c(Cl)c2=O)cc1`, for which, in the data set “physchem [3]”, the kinetic solubility was found to be 22 µM (≈ 9.41 µg/mL). The same molecule yielded an MIC90 in data set [4] of 4.9 µM (≈ 2.09 µg/mL).

Regarding `Cc1ccc(C2CC(C(F)(F)F)n3ncc(C(=O)NCc4ccc5c(c4)OCO5)c3N2)cc1` (configuration not stated), the MIC90 in data set [4] stood at 5.4 µM (≈ 2.48 µg/mL).

With `CSc1ccc(C(=O)Nc2nc(-c3ccccn3)cs2)cc1`, in “physchem [1]”, the logD is 5.07. Besides, the logP in the data set “physchem [2]” was 5.06. In data set [4], this molecule registered an MIC90 of 8.71 µM (≈ 2.85 µg/mL).

Regarding `Cc1cc(/C=C/c2cccc(C(=O)O)c2)cc(Cl)c1OC[C@@H]1CCCN1C`, the kinetic solubility in the data set “physchem [3]” was 486 µM (≈ 188 µg/mL). Also, the MIC90 in data set [4] came to 0.457 µM (≈ 0.176 µg/mL).

`c1ccc(-c2nc(N3CCCCCC3)nc(-n3ccnc3)n2)cc1` yielded a kinetic solubility in “physchem [3]” of 1 µM (≈ 0.32 µg/mL). Moreover, the MIC90 in data set [4] was 7.41 µM (≈ 2.38 µg/mL).

For `CNc1nc(SC)nc2ccccc12`, the MIC90 in data set [4] is 0.2 µM (≈ 0.0411 µg/mL).
